Measurements published in PubChem BioAssay (NCI).
Several values for one entry are separate records, joined by “and”; a condition that tells them apart may be missing. Equal values may be shown once.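 Each compound was tested at five concentrations against cells in 96-well plates for 48 hours. At the GI50, growth is halved. TGI: total growth inhibition.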

What follows are compounds tested on MDA-MB-468 breast (assay: DTP human tumour cell line panel, 48 h).

Row | Structure (SMILES) | GI50 | TGI
1 | O=C(Nc1nc2ccc(C(F)(F)F)cc2s1)c1cc(Cl)ccc1O | 1400 nM | 13700 nM
2 | CCN(CC)CCCC(CNc1ccnc2cc(Cl)ccc12)c1ccc(Cl)cc1 (stereo unspecified) | 992 nM and 419 nM | 2550 nM and 1490 nM
3 | CC(C)CCN1c2nc(Nc3cc(F)c(O)c(F)c3)ncc2N(C)C(=O)C1C (stereo unspecified) | 5020 nM | 23900 nM
4 | NC(=O)c1c(NC(=O)c2ccc(C3CCCCC3)cc2)sc2c1CCC(=O)C2 | 297 nM | 1430 nM
5 | O=C(Cc1ccc(/C=C/C(=O)c2ncc[nH]2)cc1)Nc1cc(F)c(F)c(F)c1 | 1110 nM | 4530 nM
6 | CC(C)=CCNc1ncnc2c1ncn2C1OC(CO)C(O)C1O (stereo unspecified) | 370 nM | 1780 nM
7 | CC(C)=CC/C=C(/C)[C@H]1CC[C@]2(C)[C@@H]1CC[C@@H]1[C@@]3(C)CCCNC(C)(C)[C@@H]3CC[C@]12C | 1710 nM | 3250 nM
8 | C=C1CC[C@@H]2[C@](C)(COC(C)=O)[C@H](OC(C)=O)CC[C@@]2(C)[C@@H]1CC(Sc1ccccc1)C1=CCOC1=O (stereo partly specified) | 1410 nM | 3260 nM
9 | CCN1CCN(C(c2ccc(C(F)(F)F)cc2)c2ccc3cccnc3c2O)CC1 (stereo unspecified) | 2480 nM | 6480 nM
10 | Clc1nc2ccccc2nc1CI | 2990 nM | 8670 nM
11 | N#CC(=C1C=CC(=NO)C=C1)c1ccccc1 | 289 nM | 2860 nM
12 | COc1cc(C2CC(c3cccc(Br)c3)=NN2C(C)=O)cc(OC)c1OC (stereo unspecified) | 215 nM | > 100000 nM
13 | COc1ccc(CN2C(=O)/C(=C\C(=O)c3ccc(OCCN4CCCCC4)cc3)c3ccccc32)cc1 | 1700 nM | 3680 nM
14 | CCN(CC)c1ccc2c(c1)OC(N)=C(C#N)C2c1cc(OC)c2c(c1)OCO2 (stereo unspecified) | 32.8 nM | 2970 nM
15 | CS(=O)c1nccc(-c2c(-c3ccc(F)c(OCc4ccc(F)cc4)c3)nc3sccn23)n1 (stereo unspecified) | 1950 nM | 4330 nM
16 | Cc1ccc(C)c(C2=C(c3cn(C)c4ccccc34)C(=O)NC2=O)c1 | 24300 nM | > 25000 nM
17 | O=C(CNc1ccc(Cl)cc1)Nc1ccc(-c2nc3ccccc3s2)cc1 | 37.5 nM | 386 nM

Row | Structure (SMILES) | GI50 | TGI
18 | COc1ccc(/C=C(/C(=O)N2CCN(c3ccccc3)CC2)c2cc(OC)c(OC)c(OC)c2)cc1O | 575 nM | > 100000 nM
19 | CCCCCCCCCCCCCC1=NC(C)(C)CN1C(C)C | 1520 nM | 2940 nM
20 | C=COCCCOc1ccccc1 | > 100000 nM | > 100000 nM
21 | COc1ccc(C(C)=O)cc1N1C(=O)C2C(C1=O)C1(c3ccccc3)C(=O)C2(c2ccccc2)C(c2ccc(C)cc2)=C1c1ccc(C)cc1 (stereo unspecified) | > 100000 nM | > 100000 nM
22 | CCn1c(-c2nonc2N)nc2c(C#CC(C)(C)O)nc(OC[C@H](N)c3ccccc3)cc21 | 2950 nM | 6730 nM
23 | O=C(Nc1ccc(Cl)cc1F)c1ccccc1O | 2310 nM | 6420 nM
24 | CCN(CC)CCOc1ccc(-c2nc3cc(Cl)ccc3s2)cc1 | 1160 nM | 2460 nM
25 | CCC(C)n1ncn(-c2ccc(N3CCN(c4ccc(OCC5COC(Cn6cncn6)(c6ccc(Cl)cc6Cl)O5)cc4)CC3)cc2)c1=O (stereo unspecified) | 7070 nM | > 100000 nM
26 | Cn1nc(N)c2cc([C@@H]3Nc4ccc5[nH]ncc5c4[C@H]4C5CCC(C5)[C@@H]34)ccc21 (stereo partly specified) | 235 nM | 3340 nM
27 | Cn1c2ccccc2c2c3c(c4c5cc(Br)ccc5n(C)c4c21)C(=O)N(O)C3=O | 213 nM | 510 nM
28 | CN1CCN(CCOc2ccc(-c3cnc4c(-c5ccccc5F)cnn4c3)cc2)CC1 | 1650 nM | 3360 nM
29 | CCN(CC)CCC(CNc1ccnc2cc(Cl)ccc12)c1ccc(OC)cc1 (stereo unspecified) | 1990 nM | 4770 nM and 5300 nM
30 | COc1ccc(CCOc2cc3c(cc2OC)CCN(C(=O)NCc2cocn2)C3c2ccc(C)cc2C)cc1 (stereo unspecified) | 289 nM | 1300 nM
31 | [Cl][Hg][c]1cc(Br)cc(Br)c1 | 1370 nM | 3020 nM
32 | CCCCCCNC(=O)c1cc(NCc2cc(O)ccc2O)ccc1O | 6530 nM | 28900 nM
33 | O=C1NC(=O)C(c2cnc3ccccn23)=C1c1cn2c3c(cc(F)cc13)CN(C(=O)N1CCCCC1)CC2 | 4470 nM | 29900 nM
